Test results as given in US8809498B2, “Pepstatin A derivatives” (priority 2008, dated 2014).
Starred links: 1 amine or outer side, 2 acyl side, 3 side chain; linkers in the order of their positions; H or OH if unused. Non-standard residues stand in square brackets, D forms with d. Residues, ends and D or L forms follow the SMILES beside them. *: point of attachment. Abu(4,4,4-F3) = N[C@@H](CC(F)(F)F)C(=O)O; Phe(4-F) = N[C@@H](Cc1ccc(F)cc1)C(=O)O; Phe(4-Me) = Cc1ccc(C[C@H](N)C(=O)O)cc1; X1 = CC(F)(F)C[C@H](N[*:1])C(=O)[*:2]; Sta = CC(C)C[C@H](N)[C@@H](O)CC(=O)O; Isovaleryl = CC(C)CC(=O)*; Nle = CCCC[C@H](N)C(=O)O; Orn = NCCC[C@H](N)C(=O)O; Dab = NCC[C@H](N)C(=O)O; Abu = CC[C@H](N)C(=O)O

Legend:
Assay type in all cases: biochemical
Sap1 of Candida albicans = Sap1 of Candida albicans (Candida albicans, UniProt P0CY27); assay: Inhibition of proteolytic activity of Sap1 (resorufin-marked casein, fluorescence); details: for effectiveness against Sap1 compared with pepstatin A: versus pepstatin A
Sap1 of Candida albicans, sequence (P0CY27 51-391): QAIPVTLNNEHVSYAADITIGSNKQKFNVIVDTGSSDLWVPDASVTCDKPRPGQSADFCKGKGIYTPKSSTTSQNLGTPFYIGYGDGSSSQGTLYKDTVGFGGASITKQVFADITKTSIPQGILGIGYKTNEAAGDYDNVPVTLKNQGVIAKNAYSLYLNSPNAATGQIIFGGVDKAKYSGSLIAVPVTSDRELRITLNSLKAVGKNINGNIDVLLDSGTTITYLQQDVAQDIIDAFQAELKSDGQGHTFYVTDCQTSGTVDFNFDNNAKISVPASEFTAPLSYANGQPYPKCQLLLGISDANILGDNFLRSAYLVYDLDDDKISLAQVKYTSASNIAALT
Procedure: (§1) For this purpose, that inhibitor concentration was determined in vitro at which the proteolytic activity of the enzyme or its velocity of metabolizing a substrate, respectively, was reduced for 50%.
(§2) The proteolytic activity of the tested Saps was determined at the pH optimum of those Saps. Resorufin-marked casein was used as substrate. Proteolysis of casein can be detected by an increase in fluorescence due to released resorufin (a fluorescence marker) by proteolysis.
(§3) Sap1, Sap3 and Sap6 of Candida albicans were independently dissolved in 2-(N-morpholino)ethanesulfonic acid (MES) having a concentration of 10 mmol/l and a pH of 6.5 resulting in enzyme solutions having a Sap concentration of 100 mmol/l. After one hour incubation at room temperature, 80 μl of a substrate solution comprising resorufin-marked casein in a sodium citrate buffer having a concentration of 500 mmol/l and a pH of 3.5 (in case of Sap3), 4.5 (in case of Sap1) and 5.0 (in case of Sap6) were added to 20 μl of enzyme solution. The resulting Sap concentration was 5 nmol/l. The resulting casein concentration was chosen such that the Saps could work in excess of substrate. Different Sap inhibitors were added, resulting in a final inhibitor concentration of 1 nmol/1, 2 nmol/1, 5 nmol/1, 10 nmol/l, nmol/l or 50 nmol/l in each case. One enzyme-substrate sample was left without addition of inhibitor. All experiments were performed in triplicate.
(§4) The mixture of enzyme and substrate or of enzyme, substrate and inhibitor was incubated at 37° C. under agitation at 300 rpm (rounds per minute) for 60 min in each case. Afterwards, 20 μl of a trichloroacetic acid solution (30%, w/v) were added. The mixture was placed on ice for 5 minutes and centrifuged afterwards for 3 min at 6000 rpm. The supernatant was removed.
(§5) To carry out fluorescence measurements, 100 μl of the supernatant were mixed with 100 μl Tris-HCl (trishydroxymethylaminomethane-HCl) having a concentration of 1 mol/l and a pH of 10.0. The fluorescence of this mixture was measured directly after adding Tris-HCl using an excitation wavelength of 530 nm and an emission wavelength of 590 nm on a CytoFluor 2350 apparatus (Millipore, Bedford, Mass., USA), wherein sensitivity was set to 2 and bandwidth was set to 7.
(§6) The average of three independent fluorescence measurements was calculated. The fluorescence of enzyme without inhibitor (i.e. inhibitor concentration of 0 nmol/l) was set to 100% enzyme activity. The activity of inhibited enzyme was calculated accordingly from the fluorescence of inhibited enzyme with respect to fluorescence of enzyme without inhibitor. Finally, the enzyme activity was plotted against the inhibitor concentration and the IC50 value was determined.

Sap3 of Candida albicans = Sap3 of Candida albicans (Candida albicans, UniProt P0CY29); assay: Inhibition of proteolytic activity of Sap3 (resorufin-marked casein, fluorescence)
Sap3 of Candida albicans, sequence (P0CY29 59-398): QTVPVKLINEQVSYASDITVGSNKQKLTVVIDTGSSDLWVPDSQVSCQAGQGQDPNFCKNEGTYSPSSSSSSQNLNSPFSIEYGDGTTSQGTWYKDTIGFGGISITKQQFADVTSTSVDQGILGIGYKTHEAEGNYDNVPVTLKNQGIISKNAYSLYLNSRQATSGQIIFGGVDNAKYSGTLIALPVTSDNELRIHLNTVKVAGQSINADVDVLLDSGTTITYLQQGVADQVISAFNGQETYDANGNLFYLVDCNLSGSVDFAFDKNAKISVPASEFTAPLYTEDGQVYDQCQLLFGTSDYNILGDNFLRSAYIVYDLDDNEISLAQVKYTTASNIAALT
Procedure: as §1, §2, §3, §4, §5, §6

Sap5 = Sap5 (Candida albicans, UniProt P43094); assay: Inhibition of proteolytic activity of Sap5
Sap5, sequence (P43094 77-418): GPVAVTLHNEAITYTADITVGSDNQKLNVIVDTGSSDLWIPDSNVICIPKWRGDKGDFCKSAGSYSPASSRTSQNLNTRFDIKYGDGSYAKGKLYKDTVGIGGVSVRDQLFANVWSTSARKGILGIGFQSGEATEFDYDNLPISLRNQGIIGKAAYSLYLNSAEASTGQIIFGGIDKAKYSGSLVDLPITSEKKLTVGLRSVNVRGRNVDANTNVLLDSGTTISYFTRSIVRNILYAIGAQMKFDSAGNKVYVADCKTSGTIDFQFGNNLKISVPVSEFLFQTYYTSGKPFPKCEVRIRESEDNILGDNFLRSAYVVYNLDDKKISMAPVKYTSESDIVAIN
Procedure: as §1, §2, §4, §5, §6

Sap6 of Candida albicans = Sap6 of Candida albicans (Candida albicans, UniProt Q5AC08); assay: Inhibition of proteolytic activity of Sap6 (resorufin-marked casein, fluorescence); details: for effect on Sap 6: versus pepstatin A
Sap6 of Candida albicans, sequence (Q5AC08 77-418): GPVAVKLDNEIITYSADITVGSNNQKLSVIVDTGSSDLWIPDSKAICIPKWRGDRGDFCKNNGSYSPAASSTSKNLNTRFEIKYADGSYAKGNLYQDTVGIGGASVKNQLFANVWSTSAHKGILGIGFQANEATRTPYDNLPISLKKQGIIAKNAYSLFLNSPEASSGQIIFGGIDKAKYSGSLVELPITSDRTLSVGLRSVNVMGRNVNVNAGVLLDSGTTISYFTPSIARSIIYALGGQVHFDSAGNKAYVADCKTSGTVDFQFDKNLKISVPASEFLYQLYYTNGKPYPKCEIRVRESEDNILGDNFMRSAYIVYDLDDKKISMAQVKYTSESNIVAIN
Procedure: as §1, §2, §3, §4, §5, §6

Structure (SMILES)	IC50 (Sap1 of Candida albicans) [nM]	effectiveness against Sap1 compared with pepstatin A (Sap1 of Candida albicans)	IC50 (Sap3 of Candida albicans) [nM]	IC50 (Sap5) [nM]	effect on Sap 5 (Sap5; versus pepstatin A)	IC50 (Sap6 of Candida albicans) [nM]	effect on Sap 6 (Sap6 of Candida albicans)	specificity for Sap3 (Sap3 of Candida albicans; versus Sap1 and Sap6)	concentration equally effective in inhibiting Sap1, fold less than that of amprenavir (Sap1 of Candida albicans; versus amprenavir) [fold]
CCCC[C@H](NC(=O)[C@H](Cc1ccccc1)NC(=O)CC(C)C)C(=O)N[C@@H](CC(C)C)[C@@H](O)CC(=O)N[C@@H](CCCCN)C(=O)N[C@@H](CC(C)C)[C@@H](O)CC(=O)O [Compound K, (N-Iva-Phe)-Nle-Sta-Lys-Sta] (Isovaleryl-F[Nle][Sta]K[Sta]-OH)	< 5	more effective against Sap1 than pepstatin A itself	20	~5	increased effect on Sap 5	~50			
Cc1c(O)cccc1C(=O)N[C@@H](CSc1ccccc1)[C@H](O)CN1C[C@H]2CCCC[C@H]2C[C@H]1C(=O)NC(C)(C)C [Nelfinavir, reference compound]	~250000		> 312000						
CC(C)CC(=O)N[C@H](C(=O)N[C@H](C(=O)N[C@@H](CC(C)C)[C@@H](O)CC(=O)N[C@@H](CCCNC(=N)N)C(=O)N[C@@H](CC(C)C)[C@@H](O)CC(=O)O)C(C)C)C(C)C [P1'(Arg)-pepstatin, (N-Iva-Val)-Val-Sta-Arg-Sta] (Isovaleryl-VV[Sta]R[Sta]-OH)	~10		< 5			< 5	increased effects on Sap 6		
CC(C)CC(=O)N[C@H](C(=O)N[C@H](C(=O)N[C@@H](CC(C)C)[C@@H](O)CC(=O)N[C@@H](CCN)C(=O)N[C@@H](CC(C)C)[C@@H](O)CC(=O)O)C(C)C)C(C)C [P1'(Dab)-pepstatin, (N-Iva-Val)-Val-Sta-Dab-Sta] (Isovaleryl-VV[Sta][Dab][Sta]-OH)	~400		~20			> 500		very high specificity for Sap3	
CC(C)CC(=O)N[C@H](C(=O)N[C@H](C(=O)N[C@@H](CC(C)C)[C@@H](O)CC(=O)N[C@@H](CCCCN)C(=O)N[C@@H](CC(C)C)[C@@H](O)CC(=O)O)C(C)C)C(C)C [P1'(Lys)-pepstatin, (N-Iva-Val)-Val-Sta-Lys-Sta] (Isovaleryl-VV[Sta]K[Sta]-OH)	< 5	more effective against Sap1 than pepstatin A itself	< 5			~7			1000
CC(C)CC(=O)N[C@H](C(=O)N[C@H](C(=O)N[C@@H](CC(C)C)[C@@H](O)CC(=O)N[C@@H](CCCN)C(=O)N[C@@H](CC(C)C)[C@@H](O)CC(=O)O)C(C)C)C(C)C [P1'(Orn)-pepstatin, (N-Iva-Val)-Val-Sta-Orn-Sta] (Isovaleryl-VV[Sta][Orn][Sta]-OH)	~20		~15			~30			
CC[C@H](NC(=O)[C@@H](NC(=O)CC(C)C)C(C)C)C(=O)N[C@@H](CC(C)C)[C@@H](O)CC(=O)N[C@@H](C)C(=O)N[C@@H](CC(C)C)[C@@H](O)CC(=O)O [P2(Abu)-pepstatin, (N-Iva-Val)-Abu-Sta-Ala-Sta, reference compound] (Isovaleryl-V[Abu][Sta]A[Sta]-OH)	~50		< 5			~20			
CC(C)CC(=O)N[C@H](C(=O)N[C@@H](CC(C)(F)F)C(=O)N[C@@H](CC(C)C)[C@@H](O)CC(=O)N[C@@H](C)C(=O)N[C@@H](CC(C)C)[C@@H](O)CC(=O)O)C(C)C [P2(DfpGly)-pepstatin, (N-Iva-Val)-DfpGly-Sta-Ala-Sta] (Isovaleryl-V[X1][Sta]A[Sta]-OH)	~20		~5			~15			
CC(C)CC(=O)N[C@H](C(=O)N[C@@H](CC(C)C)C(=O)N[C@@H](CC(C)C)[C@@H](O)CC(=O)N[C@@H](C)C(=O)N[C@@H](CC(C)C)[C@@H](O)CC(=O)O)C(C)C [P2(Leu)-pepstatin, (N-Iva-Val)-Leu-Sta-Ala-Sta, reference compound] (Isovaleryl-VL[Sta]A[Sta]-OH)	> 500		100			~200			
CC(C)CC(=O)N[C@H](C(=O)N[C@@H](CCCCN)C(=O)N[C@@H](CC(C)C)[C@@H](O)CC(=O)N[C@@H](C)C(=O)N[C@@H](CC(C)C)[C@@H](O)CC(=O)O)C(C)C [P2(Lys)-pepstatin, (N-Iva-Val)-Lys-Sta-Ala-Sta] (Isovaleryl-VK[Sta]A[Sta]-OH)	> 500		~100	~20		50			
CCCC[C@H](NC(=O)[C@@H](NC(=O)CC(C)C)C(C)C)C(=O)N[C@@H](CC(C)C)[C@@H](O)CC(=O)N[C@@H](C)C(=O)N[C@@H](CC(C)C)[C@@H](O)CC(=O)O [P2(Nle)-pepstatin, (N-Iva-Val)-N/e-Sta-Ala-Sta] (Isovaleryl-V[Nle][Sta]A[Sta]-OH)	~10		< 5	10		~15			
CC(C)CC(=O)N[C@H](C(=O)N[C@@H](CC(F)(F)F)C(=O)N[C@@H](CC(C)C)[C@@H](O)CC(=O)N[C@@H](C)C(=O)N[C@@H](CC(C)C)[C@@H](O)CC(=O)O)C(C)C [P2(TfeGly)-pepstatin, (N-Iva-Val)-TfeGly-Sta-Ala-Sta] (Isovaleryl-V[Abu(4,4,4-F3)][Sta]A[Sta]-OH)	~50		< 5			~20			
CC(C)CC(=O)N[C@@H](CC(C)C)C(=O)N[C@H](C(=O)N[C@@H](CC(C)C)[C@@H](O)CC(=O)N[C@@H](C)C(=O)N[C@@H](CC(C)C)[C@@H](O)CC(=O)O)C(C)C [P3(Leu)-pepstatin, (N-Iva-Leu)-Val-Sta-Ala-Sta, reference compound] (Isovaleryl-LV[Sta]A[Sta]-OH)	> 500		< 5			> 500			
Cc1ccc(C[C@H](NC(=O)CC(C)C)C(=O)N[C@H](C(=O)N[C@@H](CC(C)C)[C@@H](O)CC(=O)N[C@@H](C)C(=O)N[C@@H](CC(C)C)[C@@H](O)CC(=O)O)C(C)C)cc1 [P3(MePhe)-pepstatin, (N-Iva-pMePhe)-Val-Sta-Ala-Sta] (Isovaleryl-[Phe(4-Me)]V[Sta]A[Sta]-OH)	~10		~5			~20			
COc1ccc(C[C@H](NC(=O)CC(C)C)C(=O)N[C@H](C(=O)N[C@@H](CC(C)C)[C@@H](O)CC(=O)N[C@@H](C)C(=O)N[C@@H](CC(C)C)[C@@H](O)CC(=O)O)C(C)C)cc1 [P3(O—MeTyr)-pepstatin, (N-Iva-OMeTyr)-Val-Sta-Ala-Sta] (Isovaleryl-Y(Me)V[Sta]A[Sta]-OH)	> 500		~5			~10			
CC(C)CC(=O)N[C@@H](Cc1ccccc1)C(=O)N[C@H](C(=O)N[C@@H](CC(C)C)[C@@H](O)CC(=O)N[C@@H](C)C(=O)N[C@@H](CC(C)C)[C@@H](O)CC(=O)O)C(C)C [P3(Phe)-pepstatin, (N-Iva-Phe)-Val-Sta-Ala-Sta] (Isovaleryl-FV[Sta]A[Sta]-OH)	~5	more effective against Sap1 than pepstatin A itself	< 5			~10			
CC(C)CC(=O)N[C@@H](Cc1ccc(O)cc1)C(=O)N[C@H](C(=O)N[C@@H](CC(C)C)[C@@H](O)CC(=O)N[C@@H](C)C(=O)N[C@@H](CC(C)C)[C@@H](O)CC(=O)O)C(C)C [P3(Tyr)-pepstatin, (N-Iva-Tyr)-Val-Sta-Ala-Sta] (Isovaleryl-YV[Sta]A[Sta]-OH)	< 5	more effective against Sap1 than pepstatin A itself	< 5			< 5	increased effects on Sap 6		
CC(C)CC(=O)N[C@@H](Cc1ccc(F)cc1)C(=O)N[C@H](C(=O)N[C@@H](CC(C)C)[C@@H](O)CC(=O)N[C@@H](C)C(=O)N[C@@H](CC(C)C)[C@@H](O)CC(=O)O)C(C)C [P3(p-FPhe)-pepstatin, (N-Iva-pFPhe)-Val-Sta-Ala-Sta] (Isovaleryl-[Phe(4-F)]V[Sta]A[Sta]-OH)	< 5	more effective against Sap1 than pepstatin A itself	< 5			~10			
CC(C)(C)NC(=O)[C@@H]1C[C@@H]2CCCC[C@@H]2CN1C[C@@H](O)[C@H](Cc1ccccc1)NC(=O)[C@H](CC(N)=O)NC(=O)c1ccc2ccccc2n1 [Saquinavir, reference compound]	~50000		~200000			> 312000			
